Assay results taken from patent US10221163B2 (priority 2015, dated 2019).
Where a name gives a salt, the structure may show the parent alone. Read-outs that look alike come from different tables or passages of the source.

Columns and labels:
[1] = target: IMP-1 (Serratia marcescens, UniProt P52699); assay: biochemical; assay type: biochemical; conditions: CCF2-FA substrate, 2 pM enzyme, 2 hours at 25° C.
In short: (§1)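 IC50 values derive from 4-parameter fits of percent inhibition against inhibitor concentration on semi-log axes. Activity was monitored by fluorescence with the CCF2-FA substrate after a 2-hour, 25° C incubation of compound, enzyme and substrate.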

[2] = target: NDM-1 (Klebsiella pneumoniae, UniProt C7C422); assay: biochemical; assay type: biochemical; conditions: fluorescence assay, CCF2-FA substrate, 1 pM enzyme, 2 hours at 25° C.; read-out: NDM-1 IC50
Sequence of NDM-1 (C7C422 whole entry, looked up, species assumed): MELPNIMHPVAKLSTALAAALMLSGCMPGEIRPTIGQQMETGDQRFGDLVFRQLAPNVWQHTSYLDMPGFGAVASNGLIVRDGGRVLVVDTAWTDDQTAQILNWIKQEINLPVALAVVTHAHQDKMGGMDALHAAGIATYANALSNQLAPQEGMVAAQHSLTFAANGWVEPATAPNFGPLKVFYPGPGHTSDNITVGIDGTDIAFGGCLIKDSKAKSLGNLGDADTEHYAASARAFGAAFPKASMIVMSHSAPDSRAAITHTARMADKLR
In short: as §1

[3] = target: VIM-1 (Pseudomonas aeruginosa (strain ATCC 15692 / DSM 22644 / CIP 104116 / JCM 14847 / LMG 12228 / 1C / PRS 101 / PAO1), UniProt A0A0F7KYQ8); assay: biochemical; conditions: CCF2-FA substrate, 30 pM enzyme, 2 hours at 25° C.
In short: as §1

[4] = system: Escherichia coli expressing NDM-1 (CLB30005, CLB30016); assay type: cell-based; conditions: with imipenem 1 μg/ml; for Escherichia coli MITC95: NDM-1 strain, 95% inhibition of growth; for Escherichia coli expressing NDM-1 (CLB30016) MITC95: 95% inhibition of bacterial growth
In short: (§2)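 Imipenem 1 μg/ml + inhibitor; MBL-expressing clinical strains in 1.1×CAMHB, inoculum from saline suspension diluted 1:100; 35° C, 22–24 h; absorbance read-out.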

[5] = system: Klebsiella pneumoniae expressing VIM-1 (IHMA599644); assay type: cell-based; conditions: for Klebsiella pneumoniae MITC95: VIM-1 strain IHMA599644, with imipenem 1 μg/ml, 95% inhibition of growth; for Klebsiella pneumoniae expressing VIM-1 (IHMA599644) MITC95: with imipenem 1 μg/ml, 95% inhibition of bacterial growth
In short: as §2

[6] = system: Serratia marcescens expressing IMP-1 (CL5741); assay type: cell-based; conditions: for Serratia marcescens MITC95: IMP-1 strain CL5741, with imipenem 1 μg/ml, 95% inhibition of growth; for Serratia marcescens expressing IMP-1 (CL5741) MITC95: with imipenem 1 μg/ml, 95% inhibition of bacterial growth
In short: as §2

[7] = system: Pseudomonas aeruginosa efflux+ (MB9798), IMP-1; assay type: cell-based; set-up: Concentration of metallo-β-lactamase inhibitor which restores susceptibility of efflux + (MB9798) strain to imipenem: unit not given here; conditions: C, D serine β-lactamase inhibitor closely related to relebactam; for P. aeruginosa expressing IMP-1, efflux + (MB9798) MITC95: concentration restoring susceptibility to imipenem at 2 μg/mL in the presence of a class A; for Concentration of metallo-β-lactamase inhibitor which restores susceptibility of efflux + (MB9798) strain to imipenem: imipenem at 2 μg/mL, in the presence of a class A
In short: (§3)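 PAO1 pair, broth microdilution; fixed β-lactam (imipenem/ceftazidime) at ~CLSI breakpoint + fixed class A/C BLI for AmpC; serial MBLi titration; endpoint = MBLi conc. restoring susceptibility; MB9798:MB9799 ratio = efflux liability.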

[8] = system: Pseudomonas aeruginosa efflux− (MB9799), IMP-1; assay type: cell-based; conditions: C, D serine β-lactamase inhibitor closely related to relebactam; for P. aeruginosa expressing IMP-1, efflux − (MB9799) MITC95: concentration restoring susceptibility to imipenem at 2 μg/mL in the presence of a class A; for Concentration of metallo-β-lactamase inhibitor which restores susceptibility of efflux − (MB9799) strain to imipenem: imipenem at 2 μg/mL, in the presence of a class A
In short: as §3

[9] = system: Pseudomonas aeruginosa MB9798 vs MB9799
In short: as §3

[10] = fluorescence assay, read-out: IMP-1 IC50
[11] = ratio MITC95 PA_9798/MITC95 PA_9799
[12] = fluorescence assay, read-out: VIM-1 IC50
[13] = fold difference between efflux+ (MB9798) and efflux− (MB9799) strains, imipenem at 2 μg/mL

Sequence of IMP-1 (P52699 whole entry, looked up, species assumed): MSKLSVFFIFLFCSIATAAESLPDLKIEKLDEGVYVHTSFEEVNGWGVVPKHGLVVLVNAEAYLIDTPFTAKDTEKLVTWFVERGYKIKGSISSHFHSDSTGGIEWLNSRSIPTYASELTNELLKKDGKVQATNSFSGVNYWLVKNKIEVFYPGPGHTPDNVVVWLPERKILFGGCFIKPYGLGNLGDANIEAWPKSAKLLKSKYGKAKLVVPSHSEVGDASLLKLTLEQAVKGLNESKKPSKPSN

SMILES	IC50 [1, 10] [nM]	IC50 [2] [nM]	IC50 ([3]; VIM-1 IC50, fluorescence assay) [nM]	Escherichia coli MITC95 [4] [µM]	Klebsiella pneumoniae MITC95 [5] [µM]	Serratia marcescens MITC95 [6] [µM]	P. aeruginosa expressing IMP-1, efflux + (MB9798) MITC95 [7] [µM]	P. aeruginosa expressing IMP-1, efflux − (MB9799) MITC95 [8] [µM]	Efflux ratio [9, 11]	IC50 [3, 12] [nM]	Concentration of metallo-β-lactamase inhibitor which restores susceptibility of efflux + (MB9798) strain to imipenem [7]	Concentration of metallo-β-lactamase inhibitor which restores susceptibility of efflux − (MB9799) strain to imipenem [8]	Efflux ratio [9, 13]	IC50 ([1]; IMP-1 IC50, fluorescence assay) [nM]	Escherichia coli expressing NDM-1 (CLB30016) MITC95 [4] [µM]	Klebsiella pneumoniae expressing VIM-1 (IHMA599644) MITC95 [5] [µM]	Serratia marcescens expressing IMP-1 (CL5741) MITC95 [6] [µM]
Nc1ncccc1-c1ccc(S(=O)(=O)NC[C@H]2CNCCN2)c(S(N)(=O)=O)c1-c1nn[nH]n1 [Example 316, (R)-4-(2-aminopyridin-3-yl)-N1-(piperazin-2-ylmethyl)-3-(1H-tetrazol-5-yl)benzene-1,2-disulfonamide]	2.33	0.175	0.211	0.3906	6.25	0.7813	3.125	1.563	2.00								
C[C@H](CN)NS(=O)(=O)c1ccc(-c2cccnc2NCCN)c(-c2nn[nH]n2)c1S(N)(=O)=O [Example 460, (R)-4-(2-((2-aminoethyl)amino)pyridin-3 yl)-N1-(1-aminopropan-2-yl)-3-(2H-tetrazol-5-yl)benzene-1,2-disulfonamide]	4.63	0.603		0.7813	1.563	1.563				0.148	3.125	1.563	2.00				
CN(CCN)S(=O)(=O)c1ccc(-c2cccc3[nH]c(N)nc23)c(-c2nn[nH]n2)c1S(N)(=O)=O [Example 449, 4-(2-amino-1H-benzo[d]imidazol-4-yl)-N^1-(2-aminoethyl)-N^1-methyl-3-(2H-tetrazol-5-yl)benzene-1,2-disulfonamide]	11.8	7.73	27.8	0.7813	12.5	1.563					6.25	1.563	4.00				
NS(=O)(=O)c1c(S(=O)(=O)N[C@H]2CCNC2)ccc(-c2cccc(Nc3ncc[nH]3)c2)c1-c1nn[nH]n1 [Example 472, dihydrochloride]	0.847	0.114	0.189	0.7813	0.7813	0.7813					1.563	0.3906	4.00				
Nc1nc2c(-c3ccc(S(=O)(=O)NC[C@H]4CCNC4)c(S(N)(=O)=O)c3-c3nnn[nH]3)cccc2s1 [Example 73, 4-(2-amino-1,3-benzothiazol-4-yl)-N^1-[(3S)-pyrrolidin-3-ylmethyl]-3-(1H-tetrazol-5-yl)benzene-1,2-disulfonamide]		0.0332	0.125				0.7813	1.563	0.50					0.16	1.563	3.125	1.563
C[C@H](N)CNS(=O)(=O)c1ccc(-c2ccc(N)nc2)c(-c2nn[nH]n2)c1S(N)(=O)=O [Example 479, (S)—N1-(2-aminopropyl)-4-(6-aminopyridin-3-yl)-3-(2H-tetrazol-5-yl) benzene-1,2-disulfonamide]	0.664	0.224		0.1953	1.563	0.7813				0.299	0.7813	0.7813	1.00				
NC[C@@H](CO)NS(=O)(=O)c1ccc(-c2cccc(N)n2)c(-c2nn[nH]n2)c1S(N)(=O)=O [Example 382, (S)—N1-(1-amino-3-hydroxypropan-2-yl)-4-(6-aminopyridin-2-yl)-3-(2H-tetrazol-5-yl)benzene-1,2-disulfonamide]	0.651	0.22		1.563	3.125	1.563	1.563	1.563	1.00	0.271							
NCC(CN)NS(=O)(=O)c1ccc(-c2cccc3sc(N)nc23)c(-c2nn[nH]n2)c1S(N)(=O)=O [Example 436]	0.103	0.0246		0.7813	1.563	1.563				0.116	0.7813	0.7813	1.00				
CN1CC[C@H](CNS(=O)(=O)c2ccc(-c3cccc4sc(N)nc34)c(-c3nnn[nH]3)c2S(N)(=O)=O)C1 [Example 77, 4-(2-amino-1,3-benzothiazol-4-yl)-N1-{[(3S)-1-methylpyrrolidin-3-yl]methyl}-3-(1H-tetrazol-5-yl)benzene-1,2-disulfonamide]	0.166	0.0341	0.133				0.7813	1.563	0.50						3.125	6.25	1.563
Nc1ncc(-c2ccc(S(=O)(=O)N[C@H]3CNC[C@H]3N)c(S(N)(=O)=O)c2-c2nn[nH]n2)s1 [Example 325, N1-((3S,4R)-4-aminopyrrolidin-3-yl)-4-(2-aminothiazol-5-yl)-3-(2H-tetrazol-5-yl)benzene-1,2-disulfonamide]	1.22	0.724	0.896	0.7813	3.125	1.563	1.563	0.7813	2.00								
